Experimental data from ChEMBL document CHEMBL1150461, “Synthesis of new 3-thiosubstituted carbacephem antibiotics and their activity against penicillin resistant Streptococcus pneumoniae” (1997).
≈ marks a conversion by molar mass, not a printed value.

What was measured:
Format in all cases: functional
Streptococcus pneumoniae [1] = test: In vitro minimum inhibitory concentration against penicillin resistant Streptococcus pneumoniae strains (PRSP) (number of strains = 5).
Streptococcus pneumoniae [2] = test: In vitro minimum inhibitory concentration against penicillin susceptible Streptococcus pneumoniae strains (number of strains = 3).
Streptococcus pneumoniae [3] = test: In vitro minimum inhibitory concentration against penicillin intermediate Streptococcus pneumoniae strains (number of strains = 3).

Structure (SMILES) | MIC (Streptococcus pneumoniae [1]) [µg/mL] | MIC (Streptococcus pneumoniae [2]) [µg/mL] | MIC (Streptococcus pneumoniae [3]) [µg/mL]
N[C@@H](C(=O)N[C@@H]1C(=O)N2C(C(=O)O)=C(Sc3ccncc3)CC[C@H]12)c1ccccc1 | 4 (≈ 9.42 µM) | 0.12 (≈ 0.283 µM) | 0.25 (≈ 0.589 µM)
Nc1nnc(SC2=C(C(=O)O)N3C(=O)[C@@H](NC(=O)[C@H](N)c4ccccc4)[C@H]3CC2)s1 | 2 (≈ 4.48 µM) | 0.06 (≈ 0.134 µM) | 0.5 (≈ 1.12 µM)
N[C@@H](C(=O)N[C@@H]1C(=O)N2C(C(=O)O)=C(Sc3cnns3)CC[C@H]12)c1ccccc1 | 1 (≈ 2.32 µM) | 0.06 (≈ 0.139 µM) | 0.25 (≈ 0.579 µM)
N[C@@H](C(=O)N[C@@H]1C(=O)N2C(C(=O)O)=C(Sc3nc4ccccc4s3)CC[C@H]12)c1ccccc1 | 8 (≈ 16.6 µM) | 0.5 (≈ 1.04 µM) | 4 (≈ 8.32 µM)
Cn1ccnc1SC1=C(C(=O)O)N2C(=O)[C@@H](NC(=O)[C@H](N)c3ccccc3)[C@H]2CC1 | > 16 | 1 (≈ 2.34 µM) | 8 (≈ 18.7 µM)
N[C@@H](C(=O)N[C@@H]1C(=O)N2C(C(=O)O)=C(Sc3nncs3)CC[C@H]12)c1ccccc1 | 1 (≈ 2.32 µM) | 0.06 (≈ 0.139 µM) | 0.25 (≈ 0.579 µM)
N[C@@H](C(=O)N[C@@H]1C(=O)N2C(C(=O)O)=C(Sc3ccccn3)CC[C@H]12)c1ccccc1 | 2 (≈ 4.71 µM) | 0.06 (≈ 0.141 µM) | 1 (≈ 2.36 µM)
N=C(N)SCc1ccccc1SC1=C(C(=O)O)N2C(=O)[C@@H](NC(=O)[C@H](N)c3ccccc3)[C@H]2CC1 | 0.5 (≈ 0.977 µM) | 0.02 (≈ 0.0391 µM) | 0.25 (≈ 0.489 µM)
N[C@@H](C(=O)N[C@@H]1C(=O)N2C(C(=O)O)=C(Sc3ccccc3)CC[C@H]12)c1ccccc1 | 4 (≈ 9.45 µM) | 0.06 (≈ 0.142 µM) | 1 (≈ 2.36 µM)
N[C@@H](C(=O)N[C@@H]1C(=O)N2C(C(=O)O)=C(Sc3nccs3)CC[C@H]12)c1ccccc1 | 4 (≈ 9.29 µM) | 0.12 (≈ 0.279 µM) | 2 (≈ 4.65 µM)
N[C@@H](C(=O)N[C@@H]1C(=O)N2C(C(=O)O)=C(Cl)CC[C@H]12)c1ccccc1 [LORACARBEF ANHYDROUS] | > 16 | 2 (≈ 5.72 µM) | 8 (≈ 22.9 µM)
N[C@@H](C(=O)N[C@@H]1C(=O)N2C(C(=O)O)=C(Sc3ccccc3Br)CC[C@H]12)c1ccccc1 | 2 (≈ 3.98 µM) | 0.06 (≈ 0.119 µM) | 0.25 (≈ 0.498 µM)
CCSc1nnc(SC2=C(C(=O)O)N3C(=O)[C@@H](NC(=O)[C@H](N)c4ccccc4)[C@H]3CC2)s1 | 0.5 (≈ 1.02 µM) | 0.03 (≈ 0.061 µM) | 0.25 (≈ 0.509 µM)
N[C@@H](C(=O)N[C@@H]1C(=O)N2C(C(=O)O)=C(Sc3nnc(SCC4CC4)s3)CC[C@H]12)c1ccccc1 | 0.25 (≈ 0.483 µM) | < 0.03 | 0.06 (≈ 0.116 µM)
N[C@@H](C(=O)N[C@@H]1C(=O)N2C(C(=O)O)=C(Sc3cccs3)CC[C@H]12)c1ccccc1 | 16 (≈ 37.3 µM) | 0.25 (≈ 0.582 µM) | 2 (≈ 4.66 µM)
C[n+]1ccc(SC2=C(C(=O)[O-])N3C(=O)[C@@H](NC(=O)[C@H](N)c4ccccc4)[C@H]3CC2)cc1 | 4 (≈ 9.12 µM) | 0.25 (≈ 0.57 µM) | 1 (≈ 2.28 µM)
N[C@@H](C(=O)N[C@@H]1C(=O)N2C(C(=O)O)=C(Sc3ncccn3)CC[C@H]12)c1ccccc1 | 4 (≈ 9.4 µM) | 0.12 (≈ 0.282 µM) | 0.5 (≈ 1.18 µM)
CSc1nnc(SC2=C(C(=O)O)N3C(=O)[C@@H](NC(=O)[C@H](N)c4ccccc4)[C@H]3CC2)s1 | 0.25 (≈ 0.523 µM) | < 0.03 | 0.06 (≈ 0.126 µM)
N[C@@H](C(=O)N[C@@H]1C(=O)N2C(C(=O)O)=C(Sc3ccccc3CO)CC[C@H]12)c1ccccc1 | 4 (≈ 8.82 µM) | 0.06 (≈ 0.132 µM) | 2 (≈ 4.41 µM)
Cc1nnc(SC2=C(C(=O)O)N3C(=O)[C@@H](NC(=O)[C@H](N)c4ccccc4)[C@H]3CC2)s1 | 1 (≈ 2.24 µM) | 0.03 (≈ 0.0673 µM) | 1 (≈ 2.24 µM)
Cn1cnnc1SC1=C(C(=O)O)N2C(=O)[C@@H](NC(=O)[C@H](N)c3ccccc3)[C@H]2CC1 | > 16 | 0.5 (≈ 1.17 µM) | 4 (≈ 9.34 µM)
CSC1=C(C(=O)O)N2C(=O)[C@@H](NC(=O)[C@H](N)c3ccccc3)[C@H]2CC1 | > 16 | 1 (≈ 2.77 µM) | 8 (≈ 22.1 µM)
